Test results: the NIST ThermoML archive (doi:10.1021/je049551l)
Numbers after ± are expanded uncertainties.

Details: Crystal; DTA

Row | SMILES | Normal melting temperature [°C]
1 | COc1ccc2cc([C@H](C)C(=O)O)ccc2c1 [(S)-(+)-naproxen] | 157.50 ± 1.1
2 | NC(=O)/N=N/C(N)=O [azodicarbonamide] | 224.50 ± 1.1
3 | CC(C)Cc1ccc(C(C)C(=O)O)cc1 (stereo not drawn) [ibuprofen] | 74.50 ± 3
4 | CC(=O)O[C@H]1C(=O)[C@@]2(C)[C@H]([C@H](OC(=O)c3ccccc3)[C@]3(O)C[C@H](OC(=O)[C@H](O)[C@@H](NC(=O)c4ccccc4)c4ccccc4)C(C)=C1C3(C)C)[C@]1(OC(C)=O)CO[C@@H]1C[C@@H]2O [paclitaxel] | 215.00 ± 4

The remaining lines, values ahead:

Row | Normal melting temperature [°C] | SMILES
5 | 124.00 ± 2 | O=c1oc(-c2ccccc2)nc2ccccc12 [2-phenyl-4H-3,1-benzoxazin-4-one]
6 | 284.00 ± 4 | O=c1[nH]cc(F)c(=O)[nH]1 [5-fluoro-2,4(1H,3H)-pyrimidinedione]
7 | 170.00 ± 4 | CC(=O)Nc1ccc(O)cc1 [N-acetyl-p-aminophenol]
8 | 187.00 ± 2 | Cc1cn([C@H]2C[C@H](O)[C@@H](CO)O2)c(=O)[nH]c1=O [thymidine]
